This note sets out measurements from US11970471B1, “3-(4-chlorophenyl)-5-{[5-methyl-2-(propan-2-yl)phenoxy]methyl }- 1,2,4-oxadiazole as an antitumor and antimicrobial compound” (KING FAISAL UNIVERSITY, priority 2023, dated 2024).

Each structure is given as a SMILES string.

Data set [1] relates to Human prostate cancer cells (PC3). Nature of the data set: Cytotoxicity by SRB assay, PC3 cells. The class given is cell-based. Particulars: 0.01 μM to 100 μM for 72 h. How it is done:
(§1) Human prostate cancer cells (PC3) and human osteosarcoma cells (MG-63) were obtained from Nawah Scientific Inc. (Mokatam, Cairo, Egypt) and cultured in DMEM (Dulbecco's modified eagle's medium), Gibco, USA, supplemented with fetal bovine serum (FBS) at a concentration of 10% and 100 U/mL of penicillin and streptomycin (PS). The cells were incubated at 37° C. in a humidified environment that contained 5% CO2. Cells were seeded in 96-well plates as aliquots of 100 μL cell suspension and incubated in a complete media for 24 h. afterward, cells were treated with 3-(4-chlorophenyl)-5-{[5-methyl-2-(propan-2-yl)phenoxy]methyl}-1,2,4-oxadiazole at diverse concentrations ranging from 0.01 μM to 100 μM for 72 h. Then, cells were fixed at 4° C. for one hour with 150 μL of 10% trichloroacetic acid (TCA). After washing the cells five times with distilled water, 70 μL of sulforhodamine (SRB) solution (0.4% w/v) was added and incubated for 10 min at room temperature in a dark place. […] Then, 150 μL of Tris pH 10.5 (10 mM) was added, and the absorbance was measured at 540 nm using a BMG LABTECH®-FLUOstar Omega microplate reader (Ortenberg, Germany). Half maximal inhibitory concentrations (IC50) values were calculated for each experiment using GraphPad Prism 6 software. […] The inhibition was calculated using the following equation: Inhibition %=100−Average Viability
(In general: The SRB assay estimates cell density from bound dye.)

The test system of data set [2] is human osteosarcoma cells (MG-63). Description: Cytotoxicity by SRB assay, MG-63 cells. Particulars: 0.01 μM to 100 μM for 72 h. The class given is cell-based. How it is done:
as §1

As usually defined, the melting point is the temperature of the solid-liquid transition. Consider `Cc1ccc(C(C)C)c(OCc2nc(-c3ccc(Cl)cc3)no2)c1` [3-(4-chlorophenyl)-5-{[5-methyl-2-(propan-2-yl)phenoxy]methyl}-1,2,4-oxadiazole], for which the melting point was 166 to 167 °C. The antiproliferative activity entry in data set [1] is recorded as “excellent antiproliferative activities”. In addition, the antiproliferative activity entry in data set [2] is reported as “excellent antiproliferative activities”.
